BindingDB's records for doi:10.1021/jm00350a005 (1982)
pIC50, pKd: −log10 of the molar value.

What was measured:
[1] = molecular target: 5-hydroxytryptamine receptor 1A/1B/1D/1E/1F/2A/2B/2C/3A/3B/3C/3D/3E/4/5A/6/7; assay: Ability to displace [3H]5-HT binding to 5-hydroxytryptamine receptor site using 1 uM LSD as masking ligand
[2] = molecular target: 5-hydroxytryptamine receptor 1A/1B/1D/1E/1F/2A/2B/2C/3A/3B/3C/3D/3E/4/5A/6/7; assay: Ability to displace [3H]5-HT binding to 5-hydroxytryptamine receptor site using 1 uM LSD as masking ligand, […].
[3] = molecular target: 5-hydroxytryptamine receptor 1A/1B/1D/1E/1F/2A/2B/2C/3A/3B/3C/3D/3E/4/5A/6/7; assay: Ability to displace [3H]5-HT binding to 5-hydroxytryptamine receptor using 1 uM LSD as masking ligand, activity is expressed as Kd.
[4] = molecular target: 5-hydroxytryptamine receptor 1A/1B/1D/1E/1F/2A/2B/2C/3A/3B/3C/3D/3E/4/5A/6/7; assay: Ability to displace [3H]5-HT binding from 5-hydroxytryptamine receptor site using 1 uM LSD as masking ligand

CSc1cccc2[nH]cc(CCN(C)C)c12 showed a pIC50 [1] of 3.82 and a pKd [2] of 5.08.

CN(C)CCc1c[nH]c2cc3c(cc12)OCO3 was tested, and the pKd [2] was 5.08.

In the case of CSc1ccc2[nH]cc(CCN(C)C)c2c1, the pKd [3] was 7.37.

In the case of CC(C)N(CCc1c[nH]c2cc3c(cc12)OCO3)C(C)C, the pIC50 [4] was 3.03.
